Patent US6737383B1, “Herbicidal oxadiazolidines” (priority 1999, dated 2004)

Legend:
soybean = experiment: Test B pre/postemergence soybean; assay type: in vivo, Glycine max
How it was run: (§1)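 Herbicidal effect was estimated by eye on a ten-point control scale after plants spent twelve to sixteen days in a greenhouse following soil or foliar treatment. Foliar sprays targeted plants at one to four leaves; all doses were formulated in a non-phytotoxic solvent with surfactant.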

crabgrass = experiment: Test B pre/postemergence crabgrass; assay type: in vivo, Digitaria sanguinalis
How it was run: as §1

purple nutsedge = experiment: Test B pre/postemergence purple nutsedge; assay type: in vivo, Cyperus rotundus
How it was run: as §1

rice = experiment: Test B flood test rice; assay type: in vivo, Oryza sativa
How it was run: (§2)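 Each value is a visual injury score relative to controls, with 10 meaning complete control and 0 no effect. Evaluation took place twelve to sixteen days after the 2-leaf-stage plants were treated and kept in the greenhouse.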

duck salad = experiment: Test B flood test duck salad; assay type: in vivo, Heteranthera limosa
How it was run: as §2

sugar beet = experiment: Test B pre/postemergence sugar beet; assay type: in vivo, Beta vulgaris
How it was run: as §1

pigweed = experiment: Test B pre/postemergence pigweed; assay type: in vivo, Amaranthus retroflexus
How it was run: as §1

blackgrass = experiment: Test B pre/postemergence blackgrass; assay type: in vivo, Alopecurus myosuroides
How it was run: as §1

cocklebur = experiment: Test B pre/postemergence cocklebur; assay type: in vivo, Xanthium strumarium
How it was run: as §1

wheat = experiment: Test B pre/postemergence wheat; assay type: in vivo, Triticum aestivum
How it was run: as §1

bamyardgrass = experiment: Test B flood test barnyardgrass; assay type: in vivo, Echinochloa crus-galli
How it was run: as §2

surinam grass = experiment: Test B pre/postemergence surinam grass; assay type: in vivo, Brachiaria decumbens
How it was run: as §1

smallflower flatsedge = experiment: Test B flood test smallflower flatsedge; assay type: in vivo, Cyperus difformis
How it was run: as §2

rape = experiment: Test B pre/postemergence rape; assay type: in vivo, Brassica napus
How it was run: as §1

giant foxtail = experiment: Test B pre/postemergence giant foxtail; assay type: in vivo, Setaria faberii
How it was run: as §1

corn = experiment: Test B pre/postemergence corn; assay type: in vivo, Zea mays
How it was run: as §1

[1] = Postemergence, Rate 62 g/ha, scale of 0 to 10, 0 is no effect, 10 is complete control
[2] = Postemergence, Rate 500 g/ha, scale of 0 to 10 where 0 is no effect and 10 is complete control
[3] = Preemergence, Rate 62 g/ha, scale 0 to 10 (0 no effect, 10 complete control)
[4] = Preemergence, Rate 125 g/ha, scale 0 to 10, 0 is no effect, 10 is complete control
[5] = Preemergence, Rate 500 g/ha, scale of 0 to 10 where 0 is no effect and 10 is complete control
[6] = Rate 250 g/ha, Postemergence, scale of 0 to 10 where 0 is no effect and 10 is complete control
[7] = Postemergence, Rate 125 g/ha, scale 0 to 10, 0 is no effect, 10 is complete control
[8] = Rate 62 g/ha, flood test species, Pre-emergence, visual evaluation after twelve to sixteen days
[9] = Rate 125 g/ha, under heading Pre-emergence, flood test species, visual evaluation after twelve to sixteen days
[10] = Rate 250 g/ha, Pre-emergence (flood test species), scale 0 to 10, 0 is no effect, 10 is complete control
[11] = Rate 500 g/ha, Pre-emergence section of Table B, 0 to 10 scale (0 no effect, 10 complete control)

CC(C)N(C(=O)n1oc(=O)n(CCC2OCCO2)c1=O)c1ccccc1 [Compound 560]
Soybean plant response rating (soybean; [1]): 2
Plant response rating, Soybean (soybean; [2]): 3
Soybean plant response rating (soybean; [3]): 0
Soybean plant response rating (soybean; [4]): 0
Soybean plant response rating (0 to 10 scale) (soybean; Preemergence, Rate 250 g/ha): 1
Soybean plant response rating (soybean; [5]): 3
Plant response rating, Soybean (soybean; [6]): 2
Crabgrass plant response rating (crabgrass; [1]): 0
Crabgrass plant response rating (crabgrass; [7]): 4
Plant response rating, Crabgrass (crabgrass; [2]): 8
Crabgrass plant response rating (crabgrass; [3]): 9
Crabgrass plant response rating (crabgrass; [4]): 9
Crabgrass plant response rating (0 to 10 scale) (crabgrass; Preemergence, Rate 250 g/ha): 9
Crabgrass plant response rating (crabgrass; [5]): 10
Plant response rating, Crabgrass (crabgrass; [6]): 3
Nutsedge plant response rating (purple nutsedge; [1]): 3
Nutsedge plant response rating (purple nutsedge; [7]): 3
Plant response rating, Nutsedge (purple nutsedge; [2]): 5
Nutsedge plant response rating (purple nutsedge; [3]): 0
Nutsedge plant response rating (purple nutsedge; [4]): 3
Nutsedge plant response rating (0 to 10 scale) (purple nutsedge; Preemergence, Rate 250 g/ha): 7
Nutsedge plant response rating (purple nutsedge; [5]): 10
Plant response rating, Nutsedge (purple nutsedge; [6]): 3
Plant response rating, Rice (0 to 10 scale, 0 is no effect, 10 is complete control) (rice; [8]): 0
Rice plant response rating (0 to 10 scale, 0 is no effect, 10 is complete control) (rice; [9]): 0
Rice plant response rating (rice; [10]): 0
Rice plant response rating (rice; [11]): 0
Plant response rating, Ducksalad (0 to 10 scale, 0 is no effect, 10 is complete control) (duck salad; [8]): 0
Ducksalad plant response rating (0 to 10 scale, 0 is no effect, 10 is complete control) (duck salad; [9]): 0
Ducksalad plant response rating (duck salad; [10]): 0
Ducksalad plant response rating (duck salad; [11]): 0
Sugarbeets plant response rating (sugar beet; [1]): 0
Plant response rating, Sugarbeets (sugar beet; [2]): 6
Sugarbeets plant response rating (sugar beet; [3]): 0
Sugarbeets plant response rating (sugar beet; [4]): 0
Sugarbeets plant response rating (0 to 10 scale) (sugar beet; Preemergence, Rate 250 g/ha): 3
Sugarbeets plant response rating (sugar beet; [5]): 7
Plant response rating, Sugarbeets (sugar beet; [6]): 0
Redroot pigweed plant response rating (pigweed; [1]): 2
Plant response rating, Redroot pigweed (pigweed; [2]): 9
Redroot pigweed plant response rating (pigweed; [3]): 3
Redroot pigweed plant response rating (pigweed; [4]): 8
Redroot pigweed plant response rating (0 to 10 scale) (pigweed; Preemergence, Rate 250 g/ha): 9
Redroot pigweed plant response rating (pigweed; [5]): 9
Plant response rating, Redroot pigweed (pigweed; [6]): 8
Blackgrass plant response rating (blackgrass; [1]): 2
Blackgrass plant response rating (blackgrass; [7]): 5
Plant response rating, Blackgrass (blackgrass; [2]): 7
Blackgrass plant response rating (blackgrass; [3]): 4
Blackgrass plant response rating (blackgrass; [4]): 6
Blackgrass plant response rating (0 to 10 scale) (blackgrass; Preemergence, Rate 250 g/ha): 9
Blackgrass plant response rating (blackgrass; [5]): 9
Plant response rating, Blackgrass (blackgrass; [6]): 7
Cocklebur plant response rating (cocklebur; [1]): 0
Cocklebur plant response rating (cocklebur; [7]): 0
Plant response rating, Cocklebur (cocklebur; [2]): 0
Cocklebur plant response rating (cocklebur; [3]): 0
Cocklebur plant response rating (cocklebur; [4]): 0
Cocklebur plant response rating (0 to 10 scale) (cocklebur; Preemergence, Rate 250 g/ha): 0
Cocklebur plant response rating (cocklebur; [5]): 0
Plant response rating, Cocklebur (cocklebur; [6]): 0
Wheat plant response rating (wheat; [1]): 0
Plant response rating, Wheat (wheat; [2]): 6
Wheat plant response rating (wheat; [3]): 3
Wheat plant response rating (wheat; [4]): 5
Wheat plant response rating (0 to 10 scale) (wheat; Preemergence, Rate 250 g/ha): 6
Wheat plant response rating (wheat; [5]): 8
Plant response rating, Wheat (wheat; [6]): 3
Plant response rating, Barnyardgrass (0 to 10 scale, 0 is no effect, 10 is complete control) (bamyardgrass; [8]): 0
Barnyardgrass plant response rating (0 to 10 scale, 0 is no effect, 10 is complete control) (bamyardgrass; [9]): 0
Barnyardgrass plant response rating (bamyardgrass; [10]): 0
Barnyardgrass plant response rating (bamyardgrass; [11]): 0
B. signalgrass plant response rating (surinam grass; [1]): 0
B. signalgrass plant response rating (surinam grass; [7]): 3
Plant response rating, B. signalgrass (surinam grass; [2]): 7
B. signalgrass plant response rating (surinam grass; [3]): 4
B. signalgrass plant response rating (surinam grass; [4]): 7
B. signalgrass plant response rating (0 to 10 scale, 0 is no effect, 10 is complete control) (surinam grass; Preemergence, Rate 250 g/ha): 7
B. signalgrass plant response rating (surinam grass; [5]): 9
Plant response rating, B. signalgrass (surinam grass; [6]): 6
Plant response rating, S. Flatsedge (0 to 10 scale, 0 is no effect, 10 is complete control) (smallflower flatsedge; [8]): 0
S. Flatsedge plant response rating (0 to 10 scale, 0 is no effect, 10 is complete control) (smallflower flatsedge; [9]): 0
S. Flatsedge plant response rating (smallflower flatsedge; [10]): 0
S. Flatsedge plant response rating (smallflower flatsedge; [11]): 0
Rape plant response rating (rape; [1]): 0
Plant response rating, Rape (rape; [2]): 7
Rape plant response rating (rape; [3]): 0
Rape plant response rating (rape; [4]): 3
Rape plant response rating (0 to 10 scale) (rape; Preemergence, Rate 250 g/ha): 7
Rape plant response rating (rape; [5]): 8
Plant response rating, Rape (rape; [6]): 4
Giant foxtail plant response rating (giant foxtail; [1]): 2
Giant foxtail plant response rating (giant foxtail; [7]): 7
Plant response rating, Giant foxtail (giant foxtail; [2]): 8
Giant foxtail plant response rating (giant foxtail; [3]): 10
Giant foxtail plant response rating (giant foxtail; [4]): 10
Giant foxtail plant response rating (0 to 10 scale) (giant foxtail; Preemergence, Rate 250 g/ha): 10
Giant foxtail plant response rating (giant foxtail; [5]): 10
Plant response rating, Giant foxtail (giant foxtail; [6]): 7
Corn plant response rating (corn; [1]): 0
Corn plant response rating (corn; [7]): 0
Plant response rating, Corn (corn; [2]): 4
Corn plant response rating (corn; [3]): 0
Corn plant response rating (corn; [4]): 0
Corn plant response rating (0 to 10 scale) (corn; Preemergence, Rate 250 g/ha): 5
Corn plant response rating (corn; [5]): 5
Plant response rating, Corn (corn; [6]): 2
